From patent US10597388B2, “Pyridazinone herbicides” (FMC CORPORATION, priority 2014, dated 2020)

Tests used:
Assay in all cases: Test D controlled growth environment herbicide test, pre- and postemergence
Type in all cases: in vivo
[1] = system: deadnettle (henbit deadnettle, Lamium amplexicaule)
Outline: (§1)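 Species sown in silt loam and sprayed preemergence, or grown in peat-based medium to 2–18 cm (1- to 4-leaf stage) and sprayed postemergence, with compounds in non-phytotoxic solvent plus surfactant. Visual injury scored versus controls after 14–21 d in a controlled environment, 0 (no effect) to 100 (complete control).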

[2] = system: wheat, winter (winter wheat, Triticum aestivum)
Outline: as §1

[3] = system: chamomile (scentless chamomile, Matricaria inodora)
Outline: as §1

[4] = system: bromegrass, downy (downy bromegrass, Bromus tectorum)
Outline: as §1

[5] = system: Russian thistle (Salsola kali)
Outline: as §1

[6] = system: radish, wild (wild radish, Raphanus raphanistrum)
Outline: as §1

[7] = system: blackgrass (Alopecurus myosuroides)
Outline: as §1

[8] = system: field violet (Viola arvensis)
Outline: as §1

[9] = system: speedwell (bird's-eye speedwell, Veronica persica)
Outline: as §1

[10] = system: ryegrass, Italian (Italian ryegrass, Lolium multiflorum)
Outline: as §1

[11] = system: chickweed (common chickweed, Stellaria media)
Outline: as §1

[12] = system: lambsquarters (Chenopodium album)
Outline: as §1

[13] = system: windgrass (Apera spica-venti)
Outline: as §1

kochia (Kochia scoparia) = system: kochia (Kochia scoparia)
Outline: as §1

[14] = Postemergence, 31 g ai/ha, scale 0 to 100 (0 no effect, 100 complete control)
[15] = Postemergence, 125 g ai/ha, visual rating on scale 0 (no effect) to 100 (complete control), 14 to 21 d
[16] = Postemergence, 250 g ai/ha, scale 0 to 100 (0 no effect, 100 complete control)
[17] = Preemergence, 62 g ai/ha, scale 0 to 100 (0 no effect, 100 complete control)
[18] = Preemergence, 125 g ai/ha, scale 0 to 100 (0 no effect, 100 complete control)
[19] = Preemergence, 250 g ai/ha, scale 0 to 100, 0 no effect, 100 complete control
[20] = postemergence, 62 g ai/ha, scale 0 to 100, 0 no effect, 100 complete control

Cc1cc2ccccc2c(-c2c(O)c(C)nn(C)c2=O)c1C [Compound 34]
Deadnettle plant response rating [1, 14]: 95
Plant response rating, Deadnettle [1, 15]: 100
Plant response rating, Deadnettle [1, 16]: 100
Plant response rating (scale of 0 to 100), Deadnettle ([1]; Preemergence, 31 g ai/ha): 0
Plant response rating, Deadnettle [1, 17]: 40
Plant response rating, Deadnettle [1, 18]: 50
Plant response rating, Deadnettle [1, 19]: 95
Plant response rating, Deadnettle [1, 20]: 100
Wheat, Winter plant response rating [2, 14]: 5
Plant response rating, Wheat, Winter [2, 15]: 15
Plant response rating, Wheat, Winter [2, 16]: 25
Plant response rating (scale of 0 to 100), Wheat, Winter ([2]; Preemergence, 31 g ai/ha): 0
Plant response rating, Wheat, Winter [2, 17]: 0
Plant response rating, Wheat, Winter [2, 18]: 25
Plant response rating, Wheat, Winter [2, 19]: 40
Plant response rating, Wheat, Winter [2, 20]: 25
Chamomile plant response rating [3, 14]: 75
Plant response rating, Chamomile [3, 15]: 100
Plant response rating, Chamomile [3, 16]: 100
Plant response rating, Chamomile [3, 20]: 80
Bromegrass, Downy plant response rating [4, 14]: 20
Plant response rating, Bromegrass, Downy [4, 15]: 40
Plant response rating, Bromegrass, Downy [4, 16]: 70
Plant response rating (scale of 0 to 100), Bromegrass, Downy ([4]; Preemergence, 31 g ai/ha): 0
Plant response rating, Bromegrass, Downy [4, 17]: 50
Plant response rating, Bromegrass, Downy [4, 18]: 50
Plant response rating, Bromegrass, Downy [4, 19]: 80
Plant response rating, Bromegrass, Downy [4, 20]: 30
Russian Thistle plant response rating [5, 14]: 70
Plant response rating, Russian Thistle [5, 15]: 80
Plant response rating, Russian Thistle [5, 16]: 85
Plant response rating (scale of 0 to 100), Russian Thistle ([5]; Preemergence, 31 g ai/ha): 0
Plant response rating, Russian Thistle [5, 17]: 0
Plant response rating, Russian Thistle [5, 18]: 10
Plant response rating, Russian Thistle [5, 19]: 15
Plant response rating, Russian Thistle [5, 20]: 80
Radish, Wild plant response rating [6, 14]: 65
Plant response rating, Radish, Wild [6, 15]: 90
Plant response rating, Radish, Wild [6, 16]: 95
Plant response rating (scale of 0 to 100), Radish, Wild ([6]; Preemergence, 31 g ai/ha): 0
Plant response rating, Radish, Wild [6, 17]: 0
Plant response rating, Radish, Wild [6, 18]: 60
Plant response rating, Radish, Wild [6, 19]: 60
Plant response rating, Radish, Wild [6, 20]: 85
Blackgrass plant response rating [7, 14]: 25
Plant response rating, Blackgrass [7, 15]: 70
Plant response rating, Blackgrass [7, 16]: 75
Plant response rating (scale of 0 to 100), Blackgrass ([7]; Preemergence, 31 g ai/ha): 15
Plant response rating, Blackgrass [7, 17]: 20
Plant response rating, Blackgrass [7, 18]: 40
Blackgrass plant response rating [7, 19]: 65
Plant response rating, Blackgrass [7, 20]: 40
Field Violet plant response rating [8, 14]: 75
Plant response rating, Field Violet [8, 15]: 95
Plant response rating, Field Violet [8, 16]: 95
Plant response rating (scale of 0 to 100), Field Violet ([8]; Preemergence, 31 g ai/ha): 15
Plant response rating, Field Violet [8, 17]: 25
Plant response rating, Field Violet [8, 18]: 75
Plant response rating, Field Violet [8, 19]: 95
Plant response rating, Field Violet [8, 20]: 100
Speedwell plant response rating [9, 14]: 65
Plant response rating, Speedwell [9, 15]: 100
Plant response rating, Speedwell [9, 16]: 100
Plant response rating (scale of 0 to 100), Speedwell ([9]; Preemergence, 31 g ai/ha): 100
Plant response rating, Speedwell [9, 17]: 100
Plant response rating, Speedwell [9, 18]: 100
Plant response rating, Speedwell [9, 19]: 100
Plant response rating, Speedwell [9, 20]: 75
Ryegrass, Italian plant response rating [10, 14]: 90
Plant response rating, Ryegrass, Italian [10, 15]: 95
Plant response rating, Ryegrass, Italian [10, 16]: 95
Plant response rating (scale of 0 to 100), Ryegrass, Italian ([10]; Preemergence, 31 g ai/ha): 75
Plant response rating, Ryegrass, Italian [10, 17]: 95
Plant response rating, Ryegrass, Italian [10, 18]: 100
Plant response rating, Ryegrass, Italian [10, 19]: 100
Plant response rating, Ryegrass, Italian [10, 20]: 95
Chickweed plant response rating [11, 14]: 95
Plant response rating, Chickweed [11, 15]: 100
Plant response rating, Chickweed [11, 16]: 100
Plant response rating (scale of 0 to 100), Chickweed ([11]; Preemergence, 31 g ai/ha): 85
Plant response rating, Chickweed [11, 17]: 95
Plant response rating, Chickweed [11, 18]: 100
Plant response rating, Chickweed [11, 19]: 100
Plant response rating, Chickweed [11, 20]: 100
Lambsquarters plant response rating [12, 14]: 90
Plant response rating, Lambsquarters [12, 15]: 100
Plant response rating, Lambsquarters [12, 16]: 100
Plant response rating (scale of 0 to 100), Lambsquarters ([12]; Preemergence, 31 g ai/ha): 60
Plant response rating, Lambsquarters [12, 17]: 60
Plant response rating, Lambsquarters [12, 18]: 95
Plant response rating, Lambsquarters [12, 19]: 95
Plant response rating, Lambsquarters [12, 20]: 95
Windgrass plant response rating [13, 14]: 40
Plant response rating, Windgrass [13, 15]: 65
Plant response rating, Windgrass [13, 16]: 75
Plant response rating (scale of 0 to 100), Windgrass ([13]; Preemergence, 31 g ai/ha): 15
Plant response rating, Windgrass [13, 17]: 25
Plant response rating, Windgrass [13, 18]: 55
Plant response rating, Windgrass [13, 19]: 70
Plant response rating, Windgrass [13, 20]: 50
Kochia plant response rating (kochia (Kochia scoparia); [14]): 60
Plant response rating, Kochia (kochia (Kochia scoparia); [15]): 85
Plant response rating, Kochia (kochia (Kochia scoparia); [16]): 95
Plant response rating (scale of 0 to 100), Kochia (kochia (Kochia scoparia); Preemergence, 31 g ai/ha): 25
Plant response rating, Kochia (kochia (Kochia scoparia); [17]): 10
Plant response rating, Kochia (kochia (Kochia scoparia); [18]): 15
Plant response rating, Kochia (kochia (Kochia scoparia); [19]): 50
Plant response rating, Kochia (kochia (Kochia scoparia); [20]): 85
